Consider 34 compounds from ChEMBL document CHEMBL5291721, “A preclinical secondary pharmacology resource illuminates target-adverse drug reaction associations of marketed drugs” (Nat Commun, 2023).

In one assay the target is T1, Androgen receptor (Rattus norvegicus, UniProt P15207).
T1 sequence (P15207 whole entry): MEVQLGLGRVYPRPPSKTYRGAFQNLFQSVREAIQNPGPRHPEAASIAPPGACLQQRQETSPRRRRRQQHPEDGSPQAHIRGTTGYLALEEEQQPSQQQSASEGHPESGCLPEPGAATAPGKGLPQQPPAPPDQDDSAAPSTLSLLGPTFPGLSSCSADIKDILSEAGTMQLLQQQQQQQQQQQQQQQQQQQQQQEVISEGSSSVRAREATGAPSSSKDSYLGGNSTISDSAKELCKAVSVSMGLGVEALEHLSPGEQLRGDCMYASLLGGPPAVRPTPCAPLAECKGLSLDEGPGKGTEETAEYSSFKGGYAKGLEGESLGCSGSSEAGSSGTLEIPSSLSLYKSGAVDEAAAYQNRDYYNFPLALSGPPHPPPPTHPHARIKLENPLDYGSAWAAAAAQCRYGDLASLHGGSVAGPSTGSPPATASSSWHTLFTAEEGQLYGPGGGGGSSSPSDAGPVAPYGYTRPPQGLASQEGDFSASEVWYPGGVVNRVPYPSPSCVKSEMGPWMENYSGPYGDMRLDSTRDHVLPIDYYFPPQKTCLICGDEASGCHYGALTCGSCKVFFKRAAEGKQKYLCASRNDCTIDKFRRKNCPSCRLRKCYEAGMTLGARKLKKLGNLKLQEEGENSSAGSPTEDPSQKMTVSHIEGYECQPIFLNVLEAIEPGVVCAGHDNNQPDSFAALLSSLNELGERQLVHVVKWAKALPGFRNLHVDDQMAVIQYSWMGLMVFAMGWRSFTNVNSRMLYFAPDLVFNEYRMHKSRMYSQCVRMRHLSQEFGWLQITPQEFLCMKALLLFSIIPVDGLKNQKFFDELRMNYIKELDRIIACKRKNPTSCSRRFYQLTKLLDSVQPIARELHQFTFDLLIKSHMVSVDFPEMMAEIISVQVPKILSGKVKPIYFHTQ

The target in assay [1] is T2, Endothelin receptor type B (Homo sapiens, UniProt P24530).
T2 sequence (P24530 whole entry): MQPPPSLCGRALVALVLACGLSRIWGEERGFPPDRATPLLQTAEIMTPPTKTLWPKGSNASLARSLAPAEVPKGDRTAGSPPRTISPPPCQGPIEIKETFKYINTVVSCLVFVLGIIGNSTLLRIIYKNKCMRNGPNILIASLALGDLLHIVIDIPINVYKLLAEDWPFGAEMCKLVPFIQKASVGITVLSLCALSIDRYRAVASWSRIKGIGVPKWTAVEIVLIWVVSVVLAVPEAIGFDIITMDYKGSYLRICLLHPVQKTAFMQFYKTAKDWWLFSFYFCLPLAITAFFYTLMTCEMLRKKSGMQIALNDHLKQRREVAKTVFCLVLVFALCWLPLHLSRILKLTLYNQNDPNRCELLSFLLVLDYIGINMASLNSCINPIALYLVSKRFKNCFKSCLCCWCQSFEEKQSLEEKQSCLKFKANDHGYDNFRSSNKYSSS

For a further assay, the target named is Glucagon receptor (Homo sapiens, UniProt P47871).
Assay [2] addresses 5-hydroxytryptamine receptor 2B (Homo sapiens, UniProt P41595).
The target in another assay is T3, Progesterone receptor (Homo sapiens, UniProt P06401).
T3 sequence (P06401 whole entry): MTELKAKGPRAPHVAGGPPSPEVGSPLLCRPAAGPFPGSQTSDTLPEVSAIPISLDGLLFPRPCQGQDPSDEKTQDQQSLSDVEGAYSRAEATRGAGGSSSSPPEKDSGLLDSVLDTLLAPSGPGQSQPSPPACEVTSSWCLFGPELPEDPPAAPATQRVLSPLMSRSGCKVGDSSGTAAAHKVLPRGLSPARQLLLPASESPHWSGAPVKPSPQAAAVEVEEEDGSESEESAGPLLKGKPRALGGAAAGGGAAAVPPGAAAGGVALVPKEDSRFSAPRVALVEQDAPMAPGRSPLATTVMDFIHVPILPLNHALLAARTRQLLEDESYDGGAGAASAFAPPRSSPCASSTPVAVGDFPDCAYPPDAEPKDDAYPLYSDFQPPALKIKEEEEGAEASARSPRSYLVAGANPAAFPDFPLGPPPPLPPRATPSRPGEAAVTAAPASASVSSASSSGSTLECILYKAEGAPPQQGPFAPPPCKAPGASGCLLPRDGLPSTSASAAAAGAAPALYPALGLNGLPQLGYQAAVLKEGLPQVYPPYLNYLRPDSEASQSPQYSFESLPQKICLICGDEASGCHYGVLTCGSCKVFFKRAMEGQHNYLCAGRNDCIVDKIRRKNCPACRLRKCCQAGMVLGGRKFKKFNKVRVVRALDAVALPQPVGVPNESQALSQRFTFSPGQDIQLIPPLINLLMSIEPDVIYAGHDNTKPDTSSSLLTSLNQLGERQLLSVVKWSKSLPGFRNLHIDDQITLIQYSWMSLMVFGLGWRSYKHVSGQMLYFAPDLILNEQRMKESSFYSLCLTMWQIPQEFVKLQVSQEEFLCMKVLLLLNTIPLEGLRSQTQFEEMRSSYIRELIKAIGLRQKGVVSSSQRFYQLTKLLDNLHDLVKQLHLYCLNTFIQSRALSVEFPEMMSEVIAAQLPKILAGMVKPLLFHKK

Assay [3] deals with T4, Gamma-aminobutyric acid receptor subunit alpha-1/alpha-2/beta-2/gamma-2 (Homo sapiens, UniProt P14867+P18507+P47869+P47870). The assay is classed as functional, cell-based.
The target of assay [4] is T4, Gamma-aminobutyric acid receptor subunit alpha-1/alpha-2/beta-2/gamma-2. The assay is classed as functional, cell-based. This is another data set of the same source.
Further: assay procedure not described here.

Chain of Glucagon receptor (P47871 whole entry): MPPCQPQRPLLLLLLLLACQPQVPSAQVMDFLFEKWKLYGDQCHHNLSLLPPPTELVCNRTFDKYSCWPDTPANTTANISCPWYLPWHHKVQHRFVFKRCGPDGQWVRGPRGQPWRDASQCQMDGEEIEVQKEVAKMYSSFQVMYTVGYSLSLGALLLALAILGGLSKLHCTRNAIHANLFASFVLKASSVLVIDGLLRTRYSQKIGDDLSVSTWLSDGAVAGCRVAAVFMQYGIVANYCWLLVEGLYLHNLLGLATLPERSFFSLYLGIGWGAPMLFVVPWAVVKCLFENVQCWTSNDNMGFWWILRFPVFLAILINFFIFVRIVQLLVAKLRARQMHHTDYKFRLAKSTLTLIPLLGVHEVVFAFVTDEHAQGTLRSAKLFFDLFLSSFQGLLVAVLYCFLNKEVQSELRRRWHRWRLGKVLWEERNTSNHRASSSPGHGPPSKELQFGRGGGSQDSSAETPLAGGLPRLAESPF
Chain of 5-hydroxytryptamine receptor 2B (P41595 whole entry): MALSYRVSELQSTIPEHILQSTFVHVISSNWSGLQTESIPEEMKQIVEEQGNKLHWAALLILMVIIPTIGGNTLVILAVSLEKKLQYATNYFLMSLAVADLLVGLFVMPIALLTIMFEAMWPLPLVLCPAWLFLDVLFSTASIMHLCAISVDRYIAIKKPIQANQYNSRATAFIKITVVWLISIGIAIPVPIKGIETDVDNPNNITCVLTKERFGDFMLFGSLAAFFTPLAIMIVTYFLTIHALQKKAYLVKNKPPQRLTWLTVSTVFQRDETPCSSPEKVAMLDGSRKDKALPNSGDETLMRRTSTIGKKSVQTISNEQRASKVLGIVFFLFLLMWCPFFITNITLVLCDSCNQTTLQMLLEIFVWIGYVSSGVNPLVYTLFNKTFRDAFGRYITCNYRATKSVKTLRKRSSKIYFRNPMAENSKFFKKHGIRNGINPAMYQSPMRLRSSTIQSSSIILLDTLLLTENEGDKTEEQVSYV
T4 sequence (P14867 whole entry): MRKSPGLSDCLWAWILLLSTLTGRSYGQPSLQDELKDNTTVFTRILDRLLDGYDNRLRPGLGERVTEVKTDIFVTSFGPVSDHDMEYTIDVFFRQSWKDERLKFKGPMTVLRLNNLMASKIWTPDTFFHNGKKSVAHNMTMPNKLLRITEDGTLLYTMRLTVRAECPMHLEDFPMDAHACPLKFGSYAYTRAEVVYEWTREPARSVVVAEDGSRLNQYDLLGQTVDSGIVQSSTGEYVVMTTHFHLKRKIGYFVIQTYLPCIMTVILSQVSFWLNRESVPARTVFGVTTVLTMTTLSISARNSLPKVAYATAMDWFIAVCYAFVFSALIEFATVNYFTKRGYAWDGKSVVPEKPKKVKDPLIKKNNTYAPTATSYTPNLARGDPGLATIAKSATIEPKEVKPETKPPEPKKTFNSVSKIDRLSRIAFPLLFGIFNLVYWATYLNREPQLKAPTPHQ
T4 sequence (P47870 whole entry): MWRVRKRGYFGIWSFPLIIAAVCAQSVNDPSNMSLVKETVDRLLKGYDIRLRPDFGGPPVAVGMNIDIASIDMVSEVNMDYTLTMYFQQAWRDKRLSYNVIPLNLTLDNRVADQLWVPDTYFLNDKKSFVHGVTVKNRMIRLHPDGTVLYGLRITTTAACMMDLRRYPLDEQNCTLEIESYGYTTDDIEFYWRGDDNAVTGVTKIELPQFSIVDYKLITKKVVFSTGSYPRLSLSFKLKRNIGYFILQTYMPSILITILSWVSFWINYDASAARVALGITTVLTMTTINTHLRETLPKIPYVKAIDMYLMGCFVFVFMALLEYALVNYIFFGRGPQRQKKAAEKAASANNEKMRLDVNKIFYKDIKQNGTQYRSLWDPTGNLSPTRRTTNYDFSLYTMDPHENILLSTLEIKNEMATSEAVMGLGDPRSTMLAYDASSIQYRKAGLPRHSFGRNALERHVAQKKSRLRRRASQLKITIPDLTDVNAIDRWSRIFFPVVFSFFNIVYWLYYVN
T4 sequence (P18507 whole entry): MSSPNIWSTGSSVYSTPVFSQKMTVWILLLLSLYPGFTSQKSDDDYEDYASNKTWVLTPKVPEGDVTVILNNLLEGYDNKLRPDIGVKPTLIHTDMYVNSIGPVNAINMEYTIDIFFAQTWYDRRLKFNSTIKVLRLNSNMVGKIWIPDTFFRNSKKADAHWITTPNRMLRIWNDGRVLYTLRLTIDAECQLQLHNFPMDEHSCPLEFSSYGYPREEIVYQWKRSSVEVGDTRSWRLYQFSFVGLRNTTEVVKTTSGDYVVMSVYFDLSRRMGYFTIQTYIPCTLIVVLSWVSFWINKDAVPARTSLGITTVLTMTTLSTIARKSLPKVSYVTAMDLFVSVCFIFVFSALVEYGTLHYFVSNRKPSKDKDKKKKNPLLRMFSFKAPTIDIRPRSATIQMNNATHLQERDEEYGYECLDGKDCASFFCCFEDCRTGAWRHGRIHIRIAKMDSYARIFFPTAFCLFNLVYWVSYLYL
T4 sequence (P47869 whole entry): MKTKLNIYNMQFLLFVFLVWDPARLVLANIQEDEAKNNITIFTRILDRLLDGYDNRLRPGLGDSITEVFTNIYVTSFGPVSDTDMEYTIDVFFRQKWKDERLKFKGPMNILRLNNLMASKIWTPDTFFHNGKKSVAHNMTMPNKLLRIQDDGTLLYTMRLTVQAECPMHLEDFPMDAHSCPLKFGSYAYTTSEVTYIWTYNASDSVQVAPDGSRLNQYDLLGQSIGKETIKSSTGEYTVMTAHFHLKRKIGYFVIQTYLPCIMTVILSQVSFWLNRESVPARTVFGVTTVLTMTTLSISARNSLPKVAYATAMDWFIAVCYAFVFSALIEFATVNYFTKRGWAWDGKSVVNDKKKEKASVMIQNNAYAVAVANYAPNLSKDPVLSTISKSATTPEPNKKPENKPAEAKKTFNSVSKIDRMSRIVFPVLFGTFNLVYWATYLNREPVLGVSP

Compound `CC(C)CN(C[C@@H](O)[C@H](Cc1ccccc1)NC(=O)O[C@H]1CCOC1)S(=O)(=O)c1ccc(N)cc1` had an AC50 on Androgen receptor greater than 10 µM.
As for `CC1=C(CC(=O)O)c2cc(F)ccc2/C1=C\c1ccc([S+](C)[O-])cc1` (stereo unspecified), the concentration at half-maximal activity (AC50) was greater than 30 µM in assay [1], greater than 30 µM on Glucagon receptor, greater than 10 µM in assay [2] and greater than 30 µM at Progesterone receptor.
In turn, `OCC(O)COc1ccc(Cl)cc1` (stereo unspecified) gave an AC50 at Androgen receptor greater than 10 µM.
Turning to `O=C(O[C@H]1C[N+]2(CCCOc3ccccc3)CCC1CC2)C(O)(c1cccs1)c1cccs1` [ACLIDINIUM BROMIDE], the AC50 in assay [1] is greater than 30 µM; at Glucagon receptor, greater than 30 µM; in assay [2], greater than 10 µM; at Progesterone receptor, greater than 30 µM.
With `Cc1nnc2n1-c1ccc(Cl)cc1C(c1ccccc1)=NC2` [ALPRAZOLAM], the AC50 in assay [1] is greater than 30 µM; at Glucagon receptor it was greater than 30 µM; in assay [2], greater than 10 µM; at Progesterone receptor it was greater than 30 µM.
For `CCN(CC)CCCN(c1ccccc1)C1Cc2ccccc2C1` [APRINDINE], the AC50 in assay [3] and in assay [4] was greater than 30 µM throughout.
`C[C@@H](Cc1ccccc1)N(C)Cc1ccccc1` [BENZPHETAMINE] gave a concentration at half-maximal activity (AC50) at Androgen receptor greater than 10 µM.
Regarding `CC(NC(C)(C)C)C(=O)c1cccc(Cl)c1` (stereo unspecified) [BUPROPION], the AC50 was greater than 30 µM in assay [1], greater than 30 µM on Glucagon receptor, greater than 10 µM in assay [2] and greater than 30 µM on Progesterone receptor.
As for `CC(=O)OCC1=C(C(=O)O)N2C(=O)[C@@H](NC(=O)Cc3cccs3)[C@H]2SC1` [CEPHALOTHIN], the concentration at half-maximal activity (AC50) in assay [3] and in assay [4] was greater than 30 µM throughout.
On to `CC1=C(C(=O)O)N2C(=O)[C@@H](NC(=O)[C@H](N)C3=CCC=CC3)[C@H]2SC1` [CEPHRADINE], for which the half-maximal activity concentration (AC50) in assay [3] and in assay [4] was greater than 30 µM in each case.
In the case of `COc1ccc(C(Cl)=C(c2ccc(OC)cc2)c2ccc(OC)cc2)cc1` [CHLOROTRIANISENE], the AC50 in assay [3] and in assay [4] was greater than 30 µM throughout.
For the compound `Oc1cc(O)c2c(c1)O[C@H](c1ccc(O)c(O)c1)[C@@H](O)C2` [CIANIDANOL], the AC50 was greater than 30 µM in assay [1], greater than 30 µM on Glucagon receptor, greater than 10 µM in assay [2] and greater than 30 µM on Progesterone receptor.
In the case of `O=C1CN=C(c2ccccc2Cl)c2cc([N+](=O)[O-])ccc2N1` [CLONAZEPAM], the AC50 is greater than 30 µM at Androgen receptor; greater than 30 µM in assay [1]; greater than 30 µM on Glucagon receptor; greater than 10 µM in assay [2]; greater than 30 µM on Progesterone receptor.
In the case of `C=C(c1ccccc1OCc1cccc(Cl)c1)n1ccnc1` [CROCONAZOLE], the AC50 on Androgen receptor is greater than 30 µM.
On to `CCCCCCOC(=O)NC(=N)c1ccc(NCc2nc3cc(C(=O)N(CCC(=O)OCC)c4ccccn4)ccc3n2C)cc1` [DABIGATRAN ETEXILATE], for which the half-maximal activity concentration (AC50) in assay [3] and in assay [4] was greater than 30 µM each time.
Regarding `CCN(CC)C(C)C(=O)c1ccccc1` (stereo unspecified) [DIETHYLPROPION], the AC50 at Androgen receptor is greater than 30 µM; in assay [1] it was greater than 30 µM; at Glucagon receptor it was greater than 30 µM; in assay [2], greater than 10 µM; on Progesterone receptor, 0.22 µM.
As for `OCCN(CCO)c1nc(N2CCCCC2)c2nc(N(CCO)CCO)nc(N3CCCCC3)c2n1` [DIPYRIDAMOLE], the half-maximal activity concentration (AC50) (at Androgen receptor; in assay [2]; on Progesterone receptor) was greater than 30 µM throughout.
As for `CCN1C(=O)NC(c2ccccc2)C1=O` (stereo unspecified) [ETHOTOIN], the concentration at half-maximal activity (AC50) in assay [3] and in assay [4] was greater than 30 µM in each case.
As to `Cc1cnc(Nc2ccc(OCCN3CCCC3)cc2)nc1Nc1cccc(S(=O)(=O)NC(C)(C)C)c1` [FEDRATINIB], the AC50 at Androgen receptor and at Progesterone receptor was greater than 30 µM throughout.
For `CCOC(=O)C1=C(C)NC(C)=C(C(=O)OC)C1c1cccc(Cl)c1Cl` (stereo unspecified) [FELODIPINE], the half-maximal activity concentration (AC50) in assay [1] was greater than 30 µM; at Glucagon receptor, greater than 30 µM; in assay [2], greater than 10 µM; at Progesterone receptor it was 2.6 µM.
Consider `CN1C2CCCC1CC(NC(=O)c1nn(C)c3ccccc13)C2` (stereo unspecified) [GRANISETRON], for which the AC50 (in assay [1]; on Glucagon receptor; on Progesterone receptor) was greater than 30 µM each time.
As for `N=C(N)NC(=O)Cc1c(Cl)cccc1Cl` [GUANFACINE], the concentration at half-maximal activity (AC50) in assay [3] was greater than 30 µM; in assay [2], 1.34 µM; on Progesterone receptor it was greater than 30 µM.
Regarding `COc1ccc2c3c1O[C@H]1C(=O)CC[C@H]4[C@@H](C2)N(C)CC[C@]314` [HYDROCODONE], the concentration at half-maximal activity (AC50) in assay [1] is greater than 30 µM; on Glucagon receptor, greater than 30 µM; in assay [2], greater than 10 µM; at Progesterone receptor, greater than 30 µM.
`CN1CCC(=C2c3ccccc3CC(=O)c3sccc32)CC1` [KETOTIFEN]: half-maximal activity in assay [2] (AC50) was put at 0.0328 µM.
Take `CCN(CC)CC(=O)Nc1c(C)cccc1C` [LIDOCAINE]: the AC50 (in assay [1]; at Glucagon receptor; on Progesterone receptor) was greater than 30 µM throughout.
`Nc1cc(N2CCCCC2)nc(N)[n+]1[O-]` [MINOXIDIL]: the half-maximal activity concentration (AC50) on Androgen receptor and on Progesterone receptor was greater than 30 µM throughout.
Turning to `CC1NCCOC1c1ccccc1` (stereo unspecified) [PHENMETRAZINE], the AC50 (in assay [1]; on Glucagon receptor; at Progesterone receptor) was greater than 30 µM in each case.
`CC(C)(N)Cc1ccccc1` [PHENTERMINE]: the concentration at half-maximal activity (AC50) (at Androgen receptor; in assay [1]; at Glucagon receptor; on Progesterone receptor) was greater than 30 µM throughout.
With `CCOC(=O)O[C@]1(C(=O)COC(=O)CC)CC[C@H]2[C@@H]3CCC4=CC(=O)C=C[C@]4(C)[C@H]3[C@@H](O)C[C@@]21C` [PREDNICARBATE], the activity at Androgen receptor was half-maximal at 0.71 µM (AC50).
Compound `CCC(=O)[C@@]1(C)[C@H](C)C[C@H]2[C@@H]3CCC4=CC(=O)C=C[C@]4(C)[C@H]3[C@@H](O)C[C@@]21C` [RIMEXOLONE] returned an AC50 on Androgen receptor greater than 30 µM.
Regarding `CS(=O)(=O)NC(=O)CCC/C=C\C[C@H]1C(=O)C[C@@H](O)[C@@H]1/C=C/[C@@H](O)COc1ccccc1` [SULPROSTONE], the half-maximal activity concentration (AC50) in assay [3] and in assay [4] was greater than 30 µM throughout.
With `CC(C(=O)O)c1ccc(C(=O)c2ccccc2)s1` (stereo unspecified) [TIAPROFENIC ACID], the AC50 at Androgen receptor is greater than 10 µM.
For the compound `OCC(CO)N[C@H]1C[C@](O)(CO)[C@@H](O)[C@H](O)[C@H]1O` [VOGLIBOSE], the AC50 at Androgen receptor is greater than 30 µM.
Consider TEPRENONE, for which the AC50 at Androgen receptor and on Progesterone receptor was greater than 30 µM in each case.
